Measurements: patent US20210338846A1, “COMPETITIVE PROSTATE-SPECIFIC MEMBRANE ANTIGEN (PSMA) BINDING AGENTS FOR REDUCTION OF NON-TARGET ORGAN UPTAKE OF RADIOLABELED PSMA INHIBITORS FOR PSMA POSITIVE TUMOR IMAGING AND RADIOPHARMACEUTICAL THERAPY” (The Johns Hopkins University, priority 2018, published 2021)
Read-outs that look alike come from different tables or passages of the source.

Tests used:
[1] = tested on: PSMA+ PC-3 PiP and PSMA− PC-3 flu tumors; format: in vivo; details: early time points
[2] = tested on: PSMA+ PC-3 PiP and PSMA− PC-3 flu tumors
[3] = 1 h, co-injection 0.5 nmole YC-I-27
[4] = 4 h, co-injection 0.5 nmole YC-I-27
[5] = 24 h, co-injection 0.5 nmole YC-I-27

SMILES: O=C(O)CC[C@H](NC(=O)N[C@@H](CCCCN(Cc1ccc(I)cc1)C(=O)CCCCNC(=O)CN1CCN(CC(=O)O)CCN(CC(=O)O)CCN(CC(=O)O)CC1)C(=O)O)C(=O)O [VK-02-90]
- effect of competing inhibitor on uptake of [125I]VK-02-90-Lu in kidneys, salivary glands and lacrimal glands [1]: effective CI

SMILES: O=C(O)CC[C@H](NC(=O)N[C@@H](CCCCN(Cc1ccc([125I])cc1)C(=O)CCCCNC(=O)CN1CCN(CC(=O)O)CCN(CC(=O)O)CCN(CC(=O)O)CC1)C(=O)O)C(=O)O [[^125I]VK-02-90]
- Biodistribution: Blood ([2]; 1 h, No CI): 1.1 ± 0.3 % injected dose/gram
- Biodistribution: Flu tumor ([2]; 1 h, No CI): 1.4 ± 0.6 % injected dose/gram
- Biodistribution: Lacrimal gland ([2]; 1 h, No CI): 17.4 ± 6.0 % injected dose/gram
- Biodistribution: PiP tumor ([2]; 1 h, No CI): 58 ± 14 % injected dose/gram
- Biodistribution: Salivary gland ([2]; 1 h, No CI): 5.1 ± 3.4 % injected dose/gram
- Biodistribution: kidneys ([2]; 1 h, No CI): 194 ± 25 % injected dose/gram
- Biodistribution: spleen ([2]; 1 h, No CI): 40 ± 16 % injected dose/gram
- Biodistribution: stomach ([2]; 1 h, No CI): 1.1 ± 0.3 % injected dose/gram
- Biodistribution: Blood [2, 3]: 0.45 ± 0.06 % injected dose/gram
- Biodistribution: Flu tumor [2, 3]: 0.37 ± 0.05 % injected dose/gram
- Biodistribution: Lacrimal gland [2, 3]: 0.75 ± 0.33 % injected dose/gram
- Biodistribution: PiP tumor [2, 3]: 35 ± 10 % injected dose/gram
- Biodistribution: Salivary gland [2, 3]: 0.46 ± 0.06 % injected dose/gram
- Biodistribution: kidneys [2, 3]: 10.0 ± 1.1 % injected dose/gram
- Biodistribution: spleen [2, 3]: 0.8 ± 0.14 % injected dose/gram
- Biodistribution: stomach [2, 3]: 0.33 ± 0.07 % injected dose/gram
- Biodistribution: thyroid [2, 3]: 0.5 ± 0.3 % injected dose/gram
- Biodistribution: Blood ([2]; 4 h, No CI): 0.2 ± 0.03 % injected dose/gram
- Biodistribution: Flu tumor ([2]; 4 h, No CI): 0.3 ± 0.1 % injected dose/gram
- Biodistribution: Lacrimal gland ([2]; 4 h, No CI): 1.9 ± 0.5 % injected dose/gram
- Biodistribution: PiP tumor ([2]; 4 h, No CI): 38 ± 13 % injected dose/gram
- Biodistribution: Salivary gland ([2]; 4 h, No CI): 0.7 ± 0.2 % injected dose/gram
- Biodistribution: kidneys ([2]; 4 h, No CI): 162 ± 3.5 % injected dose/gram
- Biodistribution: spleen ([2]; 4 h, No CI): 4.7 ± 1.2 % injected dose/gram
- Biodistribution: stomach ([2]; 4 h, No CI): 0.4 ± 0.2 % injected dose/gram
- Biodistribution: Blood [2, 4]: 0.02 ± 0.004 % injected dose/gram
- Biodistribution: Flu tumor [2, 4]: 0.7 ± 0.01 % injected dose/gram
- Biodistribution: Lacrimal gland [2, 4]: 0.14 ± 0.08 % injected dose/gram
- Biodistribution: PiP tumor [2, 4]: 35 ± 5.0 % injected dose/gram
- Biodistribution: Salivary gland [2, 4]: 0.08 ± 0.04 % injected dose/gram
- Biodistribution: kidneys [2, 4]: 2.2 ± 0.3 % injected dose/gram
- Biodistribution: spleen [2, 4]: 0.2 ± 0.1 % injected dose/gram
- Biodistribution: stomach [2, 4]: 0.2 ± 0.07 % injected dose/gram
- Biodistribution: thyroid [2, 4]: 0.14 ± 0.1 % injected dose/gram
- Biodistribution: Blood ([2]; 24 h, No CI): 0.02 ± 0.01 % injected dose/gram
- Biodistribution: Flu tumor ([2]; 24 h, No CI): 0.04 ± 0.02 % injected dose/gram
- Biodistribution: Lacrimal gland ([2]; 24 h, No CI): 0.5 ± 0.2 % injected dose/gram
- Biodistribution: PiP tumor ([2]; 24 h, No CI): 51 ± 7 % injected dose/gram
- Biodistribution: Salivary gland ([2]; 24 h, No CI): 0.3 ± 0.3 % injected dose/gram
- Biodistribution: kidneys ([2]; 24 h, No CI): 31 ± 14 % injected dose/gram
- Biodistribution: spleen ([2]; 24 h, No CI): 0.7 ± 0.4 % injected dose/gram
- Biodistribution: stomach ([2]; 24 h, No CI): 0.05 ± 0.03 % injected dose/gram
- Biodistribution: Blood [2, 5]: 0.001 ± 0.001 % injected dose/gram
- Biodistribution: Flu tumor [2, 5]: 0.02 ± 0.01 % injected dose/gram
- Biodistribution: Lacrimal gland [2, 5]: 0.02 ± 0.04 % injected dose/gram
- Biodistribution: PiP tumor [2, 5]: 33 ± 6 % injected dose/gram
- Biodistribution: Salivary gland [2, 5]: 0.02 ± 0.01 % injected dose/gram
- Biodistribution: kidneys [2, 5]: 0.3 ± 0.03 % injected dose/gram
- Biodistribution: spleen [2, 5]: 0.05 ± 0.04 % injected dose/gram
- Biodistribution: stomach [2, 5]: 0.06 ± 0.02 % injected dose/gram
- Biodistribution: thyroid [2, 5]: 0.04 ± 0.08 % injected dose/gram
- PSMA+ tumor uptake (in words) ([2]; Tables 1, 2, and 3): high PSMA+ tumor uptake
- kidney uptake (in words) ([2]; Tables 1, 2, and 3): high initial kidney uptake which clears over time

SMILES: O=C([O-])CN1CCN(CC(=O)[O-])CCN(CC(=O)NCCCCC(=O)N(CCCC[C@H](NC(=O)N[C@@H](CCC(=O)O)C(=O)O)C(=O)O)Cc2ccc([211At])cc2)CCN(CC(=O)[O-])CC1.[Lu+3] [[^211At]VK-02-90-Lu]
- Biodistribution: Blood ([2]; 1 h, No CI): 0.8 ± 0.2 % injected dose/gram
- Biodistribution: Flu tumor ([2]; 1 h, No CI): 0.4 ± 0.2 % injected dose/gram
- Biodistribution: Lacrimal gland ([2]; 1 h, No CI): 0.8 ± 0.9 % injected dose/gram
- Biodistribution: PiP tumor ([2]; 1 h, No CI): 31 ± 5 % injected dose/gram
- Biodistribution: Salivary gland ([2]; 1 h, No CI): 0.5 ± 0.2 % injected dose/gram
- Biodistribution: kidneys ([2]; 1 h, No CI): 90 ± 43 % injected dose/gram
- Biodistribution: spleen ([2]; 1 h, No CI): 2.5 ± 0.9 % injected dose/gram
- Biodistribution: stomach ([2]; 1 h, No CI): 0.4 ± 0.1 % injected dose/gram
- Biodistribution: Blood [2, 3]: 0.5 ± 0.1 % injected dose/gram
- Biodistribution: Flu tumor [2, 3]: 0.4 ± 0.1 % injected dose/gram
- Biodistribution: Lacrimal gland [2, 3]: 0 % injected dose/gram
- Biodistribution: PiP tumor [2, 3]: 25 ± 4 % injected dose/gram
- Biodistribution: Salivary gland [2, 3]: 0.4 ± 0.2 % injected dose/gram
- Biodistribution: kidneys [2, 3]: 2.2 ± 0.6 % injected dose/gram
- Biodistribution: spleen [2, 3]: 0.3 ± 0.4 % injected dose/gram
- Biodistribution: stomach [2, 3]: 0.4 ± 0.2 % injected dose/gram
- Biodistribution: Blood ([2]; 4 h, No CI): 0.1 ± 0.03 % injected dose/gram
- Biodistribution: Flu tumor ([2]; 4 h, No CI): 0.1 ± 0.1 % injected dose/gram
- Biodistribution: Lacrimal gland ([2]; 4 h, No CI): 0.3 ± 1.1 % injected dose/gram
- Biodistribution: PiP tumor ([2]; 4 h, No CI): 17 ± 5 % injected dose/gram
- Biodistribution: Salivary gland ([2]; 4 h, No CI): 0.2 ± 0.1 % injected dose/gram
- Biodistribution: kidneys ([2]; 4 h, No CI): 2.1 ± 0.6 % injected dose/gram
- Biodistribution: spleen ([2]; 4 h, No CI): 0 % injected dose/gram
- Biodistribution: stomach ([2]; 4 h, No CI): 0.3 ± 0.2 % injected dose/gram
- Biodistribution: Blood [2, 4]: 0.2 ± 0.1 % injected dose/gram
- Biodistribution: Flu tumor [2, 4]: 0.0 ± 0.04 % injected dose/gram
- Biodistribution: Lacrimal gland [2, 4]: 0 % injected dose/gram
- Biodistribution: PiP tumor [2, 4]: 19 ± 5 % injected dose/gram
- Biodistribution: Salivary gland [2, 4]: 0.3 ± 0.2 % injected dose/gram
- Biodistribution: kidneys [2, 4]: 0.7 ± 0.1 % injected dose/gram
- Biodistribution: spleen [2, 4]: 0.8 ± 0.5 % injected dose/gram
- Biodistribution: stomach [2, 4]: 0.4 ± 0.05 % injected dose/gram
- Biodistribution: Blood ([2]; 24 h, No CI): 0 % injected dose/gram
- Biodistribution: Flu tumor ([2]; 24 h, No CI): 0 % injected dose/gram
- Biodistribution: Lacrimal gland ([2]; 24 h, No CI): 0 % injected dose/gram
- Biodistribution: PiP tumor ([2]; 24 h, No CI): 9.5 ± 1.0 % injected dose/gram
- Biodistribution: Salivary gland ([2]; 24 h, No CI): 0 % injected dose/gram
- Biodistribution: kidneys ([2]; 24 h, No CI): 0.02 ± 0.02 % injected dose/gram
- Biodistribution: spleen ([2]; 24 h, No CI): 0 % injected dose/gram
- Biodistribution: stomach ([2]; 24 h, No CI): 0 % injected dose/gram
- Biodistribution: Blood [2, 5]: 0.03 ± 0.3 % injected dose/gram
- Biodistribution: Flu tumor [2, 5]: 0.2 ± 0.3 % injected dose/gram
- Biodistribution: Lacrimal gland [2, 5]: 0 % injected dose/gram
- Biodistribution: PiP tumor [2, 5]: 18 ± 8 % injected dose/gram
- Biodistribution: Salivary gland [2, 5]: 0 % injected dose/gram
- Biodistribution: kidneys [2, 5]: 0.4 ± 0.5 % injected dose/gram
- Biodistribution: spleen [2, 5]: 02.5 ± 4.3 % injected dose/gram
- Biodistribution: stomach [2, 5]: 0.4 ± 0.7 % injected dose/gram
